# Measured values published in patent US20240226234A1, “WNT5A PEPTIDES FOR THE TREATMENT OF ACUTE M[…]” (W[…], priority 2021, published 2024).
# No end group written: not given here. *: point of attachment. For = O=C*
# What was measured:
# Format in all cases: cell-based, human
# K562 cells [1] = test: Cell cycle assay, K562 cells; conditions: 72 h
# Procedure: (§1) A panel of human myeloid leukemia cell lines (HL60, K562, KG1a, THP1 and U937) and HS-5 mesenchymal stromal cells lineage were cultured in Roswell Park Memorial Institute medium-1640 (RPMI; Sigma) containing 10% Fetal Bovine Serum (Gibco), glutamine (2 mM; Sigma), penicillin (100 μg/mL; Sigma), streptomycin (100 μg/mL; Sigma), and amphotericin B (0.25 μg/mL; Gibco). The cells were maintained in a humidified atmosphere at 37° C. and 5% CO2 and the experiments were performed when they reached exponential growth. For the assays, cells were seeded on a 24-well plate and treated or not with Foxy-5 for 72 hours.
# Cells treated with Foxy or with vehicle were collected and fixed, at least, 24 hours in 70% ethanol. DNA was stained with a buffer containing iodide propidium (20 μg/mL; Sigma) and RNase A (10 μg/mL; Sigma). Cell fluorescence was detected with a FACSCalibur flow cytometer (BD). The proportions of cells in the cell cycle phases were analyzed by Modifit (Verify Software House Inc), according to DNA distributions.
# As we observed a reduction in the leukemic proliferation after Foxy-5 treatment, we also analyzed the cell cycle phases. Leukemia cell lines were treated for 72 hours with Foxy-5, at doses of 50 μM and 100 μM, or vehicle, stained with the Piper buffer containing RNAse and iodeto propidium and then analyzed by flow cytometry.
# K562 cells [2] = test: Cell growth assay, K562 cells; conditions: Foxy-5 100 μM, 72 h
# Procedure: as §1
# Cells treated with Foxy or with vehicle were collected and cell number was evaluated by manual counting in monoculture and by microscopy with Image J software analysis in 2D culture.
# Next, we evaluated the proliferation rates since this process is modulated by ROS. We treated the cells with Foxy-5 (100 μM) or with vehicle (DMSO) during 72 hours, and then cell growth was analyzed by counting the cells in monoculture, manually, or by the Image J software analysis of the 2D cultures. […] Similar results were obtained in the 2D culture system using leukemia cells and HS-5 mesenchymal stromal cells.
# U937 cells [3] = test: Transwell chemotaxis assay toward CXCL12, U937 cells; conditions: U937, Foxy-5 100 μM 72 h pretreatment, CXCL12 100 ng/mL, 24 h
# Procedure: Leukemic cell lines, pretreated or not with Foxy-5 (72 hours of stimulation) were tested for chemotaxis in Transwell-based assays for Chemotaxis (6.5 mm diameter, 8 μm pore size; Corning). Polycarbonate membranes were incubated with poly-L-lysine (1 mg/mL) for 1 hour at 37° C. followed by saline buffer washing. Briefly, cells were collected, washed with media containing bovine serum albumin (0.1% BSA; Sigma), and then seeded at a density of 5×10^5 cells into the upper chamber of the transwell. The lower chamber was filled with media containing 0.5% BSA (negative control), media containing 10% FBS (positive control) and media 5 containing 0.5% BSA with CXCL12 (100 ng/ml; Peprotech) (Melo et al., 2014). Following 6 h or 24 h of incubation at 37° C., cells that migrated into the lower chamber were collected, centrifuged, resuspended in saline buffer and counted. The number of migrated cells was expressed as a percentage of the input, i.e., the cells number applied directly to the lower compartment in parallel wells. The migration of cells was normalized to 100%+/−standard deviation (SD) of triplicates (Favaro et al., 2013).
# We investigated whether restoring of WNT5A could enable the modulation CXCL12-induced chemotaxis of leukemia cells. […]
# U937 cells [4] = test: Cell differentiation assay with PMA, U937 cells; conditions: U937, PMA (200 nM), 72 hours, morphology by microscopy
# Procedure: Cells were subjected to treatment with Foxy-5 or with vehicle, in the presence or absence of PMA (200 nM). After 72 hours, adherent cells were washed with PBS and their morphology was examined using a Zeiss Axi-oskope 2 Plus microscope (Carl Zeiss AG). The program ImageJ was used to assess differentiation.
# PMA reagent is a typical inducer of AML cell differentiation through generation of ROS. As U937 leukemia cell lineage corresponds to a model of differentiated monocyte and/or macrophage following treatment with PMA, we examined the effects of Foxy-5 treatment on U937 differentiation-inducing PMA. Following treatment with PMA for 72 hours, cells were examined by microscopy to detect morphology. The majority of cells treated with vehicle and stimulated with PMA differentiated into macrophages and adhered to the plates.
# K562 cells [5] = test: ROS production by flow cytometry, K562 cells; conditions: 72 h; for ROS production (MFI): K562, 2D culture on HS5 stromal cells; for ROS production (mean fluorescence intensity): K562, monoculture
# Procedure: as §1
# Cells treated with Foxy or with vehicle were collected and intracellular ROS generation was measured by flow cytometry following staining with DCFDA ([…]; Sigma). Acquisition of cells was performed on a FACScalibur flow cytometer (BD) and analysis was carried out using the FlowJo software.
# Leukemia cell lines were treated for 72 h with Foxy-5, at doses of 50 and 100 μM, or vehicle, stained with DCFHA dye, and analyzed by flow cytometry.
# U937 cells [6] = test: Actin polymerization assay, U937 cells; conditions: U937, Foxy-5 100 μM 72 h
# Procedure: F-actin polymerization was analyzed in treated leukemic cell lines using AlexaFluor 633-labeled phalloidin (A22284, Invitrogen) before and after CXCL12 stimulation. The cells were stimulated with CXCL12 (300 ng/ml; Peprotech) in serum-free media at 37 °C for 30 and 120 seconds. The reaction was stopped by adding 3 volumes of paraformaldehyde (3.7%) at room temperature for 10 min, then washed and permeabilized on ice. Cells were stained with 633-phalloidin (2 mg/mL). Flow cytometric data were analyzed using a FACS flow cytometer (BD) followed by FlowJo software analysis. The F-actin content obtained were normalized calculating the ratio between each stimulated cells-mean fluorescence intensity (MFI) values and the nonstimulated cells MFI from the basal levels of the control cells and expressed as fold change.
# Therefore, we performed a flow cytometry analysis to evaluate whether Foxy-5 treatment would be able to disrupt actin polymerization. Leukemia cell lines were treated with Foxy-5 (100 μM) or vehicle during 72 hours, stimulated with CXCL12 (300 ng/ml) for 30 or 120 seconds, and stained with […] for detection of actin polymerization by flow cytometry. […] Thus, a significant reduction of actin polymerization was shown after Foxy-5 treatment when compared to untreated cells after 30 seconds of CXCL12 induction (P<. 001).
substance,measurement,setting,value
Foxy-5: Formylated hexapeptide fragment of WNT5A: MDGCEL (SEQ. ID. NO. 3) with methionine in position 1 as N-formyl methionine; WNT5A-mimicking compound (For-MDGCEL; listed as Homo sapiens),cells in G0/G1 cell cycle phase (average),"K562 cells [1]; K562, co-cultured with HS5 stromal cells, Foxy-5 50 μM",65.32%
same,cells in G0/G1 cell cycle phase (average),"K562 cells [1]; K562, co-cultured with HS5 stromal cells, Foxy-5 100 μM",83.52%
same,cells in G0/G1 cell cycle phase (average),"K562 cells [1]; K562, monoculture, Foxy-5 50 μM",59.00%
same,cells in G0/G1 cell cycle phase (average),"K562 cells [1]; K562, monoculture, Foxy-5 100 μM",83.51%
same,reduced cell growth compared to vehicle treated cells,"K562 cells [2]; K562, 2D culture with HS-5 stromal cells",1.79 fold decrease
same,reduced cell growth compared to vehicle treated cells,"K562 cells [2]; K562, monoculture",3.12 fold decrease
same,"CXCL12-induced chemotaxis (migrated cells as percentage of the input, average)",U937 cells [3],40.35%
same,PMA-mediated differentiation compared with PMA-stimulated cells treated with vehicle,U937 cells [4],reduced PMA-mediated differentiation
same,ROS production (MFI),K562 cells [5]; Foxy-5 50 μM,126.00 (range 125.000-128.20) MFI
same,ROS production (MFI),K562 cells [5]; Foxy-5 100 μM,98.25 (range 98.25-104.00) MFI
same,ROS production (mean fluorescence intensity),K562 cells [5]; Foxy-5 50 μM,83.90 (range 75.80-88.40) MFI
same,ROS production (mean fluorescence intensity),K562 cells [5]; Foxy-5 100 μM,68.75 (range 64.40-72.75) MFI
same,F-actin content following CXCL12 stimulation,U937 cells [6]; CXCL12 300 ng/ml for 30 seconds,3.03 fold increase
same,F-actin content following CXCL12 stimulation,U937 cells [6]; CXCL12 300 ng/ml for 120 seconds,1.26 fold
